pIC50: −log10 of the molar value.
How the values were obtained:
SARS-CoV-2 [1] = experiment: Antiviral activity against SARS-CoV-2 B.1.351 variant assessed as neutralization viral infection in Vero cells by measuring cytopathic effect incubated for 4 days by crystal violet staining based assay; assay type: functional, organism-based; conditions: Severe acute respiratory syndrome coronavirus 2, B.1.351, Vero, 96 h
SARS-CoV-2 [2] = experiment: Antiviral activity against SARS-CoV-2 B.1.1.7 variant assessed as neutralization viral infection in Vero cells by measuring cytopathic effect incubated for 4 days by crystal violet staining based assay; assay type: functional, organism-based; conditions: Severe acute respiratory syndrome coronavirus 2, B.1.1.7, Vero, 96 h

Structure (SMILES)	pIC50 (SARS-CoV-2 [1])	pIC50 (SARS-CoV-2 [2])
CC[C@@H](C)[C@@H](NC(=O)[C@@H](Cc1cnc[nH]1)NC(=O)[C@H](NC(=O)[C@@H](CCC(=O)O)NC(=O)[C@@H](CCC(=O)O)NC(=O)[C@@H](CCSC)NC(=O)[C@@H](CC(C)C)NC(=O)[C@@H](C)NC(=O)[C@@H](Cc1ccc(O)cc1)NC(=O)[C@@H](CC(C)C)NC(=O)[C@@H](C)NC(=O)[C@H](NC(=O)[C@@H](CCC(N)=O)NC(=O)[C@H](N)CC(C)C)[C@H](C)O)[C@H](C)CC)C(=O)N[C@H](C)C(=O)N[C@H](C)C(=O)N[C@H](CC(C)C)C(=O)N[C@H](CCC(=O)O)C(=O)N[C@H](CCCCN)C(=O)N[C@@H](C(=O)N[C@H](Cc1c[nH]c2ccccc12)C(=O)N[C@@H](C(=O)N[C@H](C)C(=O)N[C@H](CC(C)C)C(=O)N[C@H](CCCNC(=N)N)C(=O)N[C@H](Cc1cnc[nH]1)C(=O)N[C@H](CCC(N)=O)C(=O)N[C@H](Cc1ccc(O)cc1)C(=O)N[C@@H](C(=O)O)[C@H](C)O)[C@H](C)O)[C@H](C)O	5.13	5.25
CC[C@@H](C)[C@@H](NC(=O)CNC(=O)[C@@H](CC(C)C)NC(=O)CNC(=O)[C@@H](CCCCN)NC(=O)CNC(=O)[C@@H](CC(=O)O)NC(=O)[C@@H](Cc1ccccc1)NC(=O)[C@H](N)CCCNC(=N)N)C(=O)N[C@H](Cc1ccc(O)cc1)C(=O)N[C@H](CCC(N)=O)C(=O)N[C@H](Cc1ccc(O)cc1)C(=O)N[C@H](CCSC)C(=O)N[C@H](CCC(=O)O)C(=O)N[C@H](CCC(=O)O)C(=O)N[C@@H](C(=O)N[C@H](CCC(=O)O)C(=O)N[C@H](Cc1cnc[nH]1)C(=O)N[C@H](C)C(=O)N[C@H](C)C(=O)N[C@H](CO)C(=O)N[C@H](CCCNC(=N)N)C(=O)N[C@H](Cc1ccccc1)C(=O)N[C@H](C)C(=O)N[C@H](Cc1ccc(O)cc1)C(=O)N[C@H](Cc1ccccc1)C(=O)N[C@H](Cc1ccccc1)C(=O)N[C@H](Cc1ccc(O)cc1)C(=O)N[C@H](CCC(N)=O)C(=O)N[C@H](Cc1cnc[nH]1)C(=O)N[C@H](CC(C)C)C(=O)N[C@H](C)C(=O)O)[C@H](C)CC	4.95	4.48
